Values joined by “and” are separate entries in the source; they are usually repeats but may differ in a detail not shown here. Identical values can stand only once.
Experiments:
[1] = Precipitation of compounds seen in the EGFR kinase assay; assay type: physicochemical; conditions: EGFR kinase assay conditions
UCH-L3 = biological target: T1, UCH-L3 (Homo sapiens, UniProt P15374); test: Deubiquitination TR-FRET assay with GFP-Ub-Tb, inhibitor titration; assay type: biochemical; conditions: 0.1 nM UCH-L3 and 10 nM GFP-Ub-Tb
T1 construct: purchased Boston Biochem E-325
T1 sequence (P15374 1-230): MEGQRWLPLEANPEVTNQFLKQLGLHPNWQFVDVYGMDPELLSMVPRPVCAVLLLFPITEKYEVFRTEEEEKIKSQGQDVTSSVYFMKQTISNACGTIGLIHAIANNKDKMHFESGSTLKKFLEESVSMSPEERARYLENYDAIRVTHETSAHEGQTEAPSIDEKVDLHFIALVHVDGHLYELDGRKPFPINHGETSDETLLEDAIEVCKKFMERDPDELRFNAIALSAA

[2] = biological target: T2, Epidermal Growth Factor Receptor (EGFR) Tyrosine Kinase (Homo sapiens, UniProt P00533); test: EGFR kinase multiplex FP/TR-RET assay (LOPAC screen and follow-up); assay type: biochemical; conditions: re-assayed, two-fold dilutions
T2 construct: purchased Invitrogen P2628

RAW 264.7 cells = test: Assay of kinase from cell lysate (GFP-cJun phosphorylation, TR-FRET); assay type: cell-based, mouse; conditions: duplicates
Experimental: RAW 264.7 cells (mouse macrophage cell line) were serum starved overnight and stimulated (or not) with 10 ug/ml of Anisomycin for 15 minutes prior to lysates being prepared. Lysates were prepared following a standard protocol, e.g., as described in the Kinase Activity Assay Kit protocol, Rev. A1 Dec. 9, 2005, Catalog#KNZ0031, BioSource (California). The protocol is outlined below.
When using the Omnia™ Lysate Assay to determine MAPKAP-K2 activity in cell lysates, the following procedure for sample preparation may be used. This protocol has been successfully applied to several cell lines of human and mouse origin. • 1. Thaw Omnia Cell Extraction Buffer (BioSource, California) on ice. • 2. Set up and stimulate cells as desired. • 3. Collect cells in cold PBS by centrifugation (for non-adherent cells) or scraping from culture plates (for adherent cells). • 4. Centrifuge the cells at 1,500 rpm for 5 minutes at 4° C. • 5. Aspirate the PBS. • 6. Resuspend the cell pellet in Omnia Cell Extraction Buffer and transfer the lysate to a 1.5 mL microcentrifuge tube. The volume of Omnia Cell Extraction Buffer depends on the cell number and expression level of MAPKAP-K2. The optimal protein concentration of lysate should be in the range of 5 to 10 mg/mL. Add an appropriate amount of protease and phosphatase inhibitor (typically provided as a 100× stock solution) before using. Under these conditions, using 0.005 mL (25-50 μg) of the clarified cell extract will be sufficient for measurement of MAPKAP-K2 activity. • 7. Lyse the cells at 4° C. for 30 minutes on a rotator. Whole cell extract can then be briefly sonicated or put through a syringe and needle if desired. • 8. Centrifuge at 13,000 rpm for 20-30 minutes at 4° C. • 9. Transfer the clarified cell extracts to clean microcentrifuge tubes. • 10. The clarified cell extract should be stored at −80° C. until ready for analysis. Avoid repeated freeze-thaw cycles. In preparation for performing the assay, allow the samples to thaw on ice. Mix well prior to analysis.
Lysate was serially diluted in buffer and 5 uL aliquots were assayed against 400 nM GFP-cJun in assay buffer containing 100 uM ATP. Assays were stopped by addition of EDTA and antibody, with a final anti-phospho cJun antibody concentration of 2 nM. The plate was read after 1 hour incubation and the data collected. Samples were performed in duplicates.

T2 sequence (P00533 25-1210): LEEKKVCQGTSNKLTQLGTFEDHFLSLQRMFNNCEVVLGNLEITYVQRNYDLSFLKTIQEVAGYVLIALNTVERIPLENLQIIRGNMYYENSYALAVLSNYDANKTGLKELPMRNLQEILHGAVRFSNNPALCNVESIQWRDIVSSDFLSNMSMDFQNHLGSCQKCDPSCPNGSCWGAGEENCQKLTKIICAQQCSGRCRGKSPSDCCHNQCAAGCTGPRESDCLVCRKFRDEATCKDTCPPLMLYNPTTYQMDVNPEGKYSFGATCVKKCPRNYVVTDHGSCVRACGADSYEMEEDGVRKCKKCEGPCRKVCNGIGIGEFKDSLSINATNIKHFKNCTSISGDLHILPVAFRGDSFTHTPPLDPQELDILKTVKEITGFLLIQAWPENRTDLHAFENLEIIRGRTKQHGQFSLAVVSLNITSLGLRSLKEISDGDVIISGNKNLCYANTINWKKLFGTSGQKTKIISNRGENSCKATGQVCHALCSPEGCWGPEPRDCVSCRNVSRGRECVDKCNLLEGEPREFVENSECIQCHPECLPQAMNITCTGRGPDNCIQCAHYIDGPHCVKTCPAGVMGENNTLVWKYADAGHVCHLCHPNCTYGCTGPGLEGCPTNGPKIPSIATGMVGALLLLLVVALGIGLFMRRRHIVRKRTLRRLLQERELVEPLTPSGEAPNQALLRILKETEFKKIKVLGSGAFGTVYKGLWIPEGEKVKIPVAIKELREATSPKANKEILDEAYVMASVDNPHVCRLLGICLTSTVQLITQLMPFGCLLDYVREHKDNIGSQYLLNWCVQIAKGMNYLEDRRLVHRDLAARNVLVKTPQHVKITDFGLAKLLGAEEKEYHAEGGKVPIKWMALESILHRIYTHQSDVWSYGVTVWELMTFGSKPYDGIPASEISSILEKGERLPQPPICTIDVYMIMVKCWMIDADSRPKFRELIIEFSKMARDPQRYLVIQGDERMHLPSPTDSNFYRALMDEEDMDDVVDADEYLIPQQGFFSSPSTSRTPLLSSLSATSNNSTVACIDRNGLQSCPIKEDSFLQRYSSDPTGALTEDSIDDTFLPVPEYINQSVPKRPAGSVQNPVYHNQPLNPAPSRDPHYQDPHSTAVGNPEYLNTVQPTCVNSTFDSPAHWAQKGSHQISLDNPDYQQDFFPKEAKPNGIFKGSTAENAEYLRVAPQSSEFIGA

With CC(C)[C@@]1(NC(=O)[C@@H]2C=C3c4cccc5[nH]cc(c45)C[C@H]3N(C)C2)O[C@@]2(O)[C@@H]3CCCN3C(=O)[C@H](Cc3ccccc3)N2C1=O [Ergocristine] the “precipitation in the assay” value [1] was “seen to precipitate”.
In the case of ubiquitin aldehyde, the IC50 (UCH-L3) is reported as 0.2 nM.
With NC(=O)c1cc(N2CC2)c([N+](=O)[O-])cc1[N+](=O)[O-] [CB-1954] the inhibitor on re-assay [2] was “neither was seen to be an inhibitor”.
For O=C1Nc2ccc(I)cc2/C1=C/c1cc(Br)c(O)c(Br)c1 [GW5074], the “precipitation in the assay” value [1] was “seen to precipitate”.
With Oc1ccccc1O [Pyrocatechol] the inhibitor on re-assay [2] was “neither was seen to be an inhibitor”.
For COc1ccc(C[C@H]2NC[C@H](O)[C@H]2OC(C)=O)cc1 [Anisomycin], the “TR-FRET value of lysate, +Anisomycin” value (RAW 264.7 cells; 10 ug/ml Anisomycin 15 minutes, 0.003051758 % Cell Lysate in 5 uL Addition) was 0.1308 and 0.1312, the “TR-FRET value of lysate, +Anisomycin” value (RAW 264.7 cells; 10 ug/ml Anisomycin 15 minutes, 0.006103516 % Cell Lysate in 5 uL Addition) was 0.1395 and 0.1339 and the “TR-FRET value of lysate, +Anisomycin” value (RAW 264.7 cells; 10 ug/ml Anisomycin 15 minutes, 0.01220703 % Cell Lysate in 5 uL Addition) was 0.1419 and 0.1424. For the same compound, the “TR-FRET value of lysate, +Anisomycin” value (RAW 264.7 cells; 10 ug/ml Anisomycin 15 minutes, 0.02441406 % Cell Lysate in 5 uL Addition) was 0.1479 and 0.1534, the “TR-FRET value of lysate, +Anisomycin” value (RAW 264.7 cells; 10 ug/ml Anisomycin 15 minutes, 0.04882813 % Cell Lysate in 5 uL Addition) was 0.1572 and 0.1894 and the “TR-FRET value of lysate, +Anisomycin” value (RAW 264.7 cells; 10 ug/ml Anisomycin 15 minutes, 0.09765625 % Cell Lysate in 5 uL Addition) was 0.2161 and 0.2286. The “TR-FRET value of lysate, +Anisomycin” value (RAW 264.7 cells; 10 ug/ml Anisomycin 15 minutes, 0.1953125 % Cell Lysate in 5 uL Addition) was 0.2474 and 0.3145, the “TR-FRET value of lysate, +Anisomycin” value (RAW 264.7 cells; 10 ug/ml Anisomycin 15 minutes, 0.390625 % Cell Lysate in 5 uL Addition) was 0.2813 and 0.3421 and the “TR-FRET value of lysate, +Anisomycin” value (RAW 264.7 cells; 10 ug/ml Anisomycin 15 minutes, 0.78125 % Cell Lysate in 5 uL Addition) was 0.3722 and 0.4739. The “TR-FRET value of lysate, +Anisomycin” value (RAW 264.7 cells; 10 ug/ml Anisomycin 15 minutes, 1.5625 % Cell Lysate in 5 uL Addition) was 0.4554 and 0.5687, the “TR-FRET value of lysate, +Anisomycin” value (RAW 264.7 cells; 10 ug/ml Anisomycin 15 minutes, 3.125 % Cell Lysate in 5 uL Addition) was 0.5703 and 0.707 and the “TR-FRET value of lysate, +Anisomycin” value (RAW 264.7 cells; 10 ug/ml Anisomycin 15 minutes, 6.25 % Cell Lysate in 5 uL Addition) was 0.5917 and 0.7878. The “TR-FRET value of lysate, +Anisomycin” value (RAW 264.7 cells; 10 ug/ml Anisomycin 15 minutes, 12.5 % Cell Lysate in 5 uL Addition) was 0.7483 and 0.8384, the “TR-FRET value of lysate, +Anisomycin” value (RAW 264.7 cells; 10 ug/ml Anisomycin 15 minutes, 25 % Cell Lysate in 5 uL Addition) was 0.8474 and 0.8571 and the “TR-FRET value of lysate, +Anisomycin” value (RAW 264.7 cells; 10 ug/ml Anisomycin 15 minutes, 50 % Cell Lysate in 5 uL Addition) was 0.9027 and 0.9226. For the same compound, the “TR-FRET value of lysate, +Anisomycin” value (RAW 264.7 cells; cells stimulated with 10 ug/ml Anisomycin 15 minutes, 100 % Cell Lysate in 5 uL Addition) was 0.9796 and 0.9768.

From patent publication US8642256B2, “Kinase and ubiquination assays” (Life Technologies Corporation, priority 2005, dated 2014)
